Laboratory results: patent US4237116A, “Combination of thiopeptin and rumensin to improve ruminant feed efficiency” (Merck & Co., Inc., priority 1979, dated 1980)

Test system: ruminants (cattle)
Test: Propionate content of rumen fluid in cattle given medicated feed (high roughage diet, then shifted to high grain diet)
Type: in vivo
Method: The synergistic effect of the combination of thiopeptin and rumensin has been observed by administering the two compounds to ruminants on a controlled diet and taking periodic samples of rumen fluid. The amount of each of the volatile fatty acids present in the rumen fluid is measured and compared with that of animals taking no medication and also with animals given only one of the two compounds. This effect has been observed in ruminants on diets of both the high roughage and high grain types. […] Animals given the same diet but with 8.25 ppm of thiopeptin in the diet for 7 days had 25.87 mole % of propionate. Animals given 16.5 ppm of rumensin for 7 days had 25.81 mole % of propionate. […] In the same test, the animal's feed was then shifted to a high grain diet and after 2 days rumen samples again taken. The control animals had 21.73 mole % of propionate. The thiopeptin treated animals (at the same dose as the first test) had 27.31 mole % propionate. The rumensin treated animals (again at the same dose as previously) had 25.95 mole % of propionate.

[1] = high roughage diet, drug in the diet for 7 days, thiopeptin 8.25 ppm, rumensin 16.5 ppm, combination 8.25 ppm + 16.5 ppm, control animals 24.16 mole %
[2] = same test after shift to high grain diet, rumen samples after 2 days, same doses (thiopeptin 8.25 ppm, rumensin 16.5 ppm, combination of both), control animals 21.73 mole %

Molecule	propionate in the rumen fluid [1]	propionate in the rumen fluid [2]
CC[C@@]1([C@H]2O[C@H]([C@H]3O[C@@](O)(CO)[C@H](C)C[C@@H]3C)C[C@H]2C)CC[C@H]([C@@]2(C)CC[C@]3(C[C@H](O)[C@@H](C)[C@@H]([C@H](C)[C@H](OC)[C@@H](C)C(=O)[O-])O3)O2)O1.[Na+] [rumensin, Rumensin]	25.81 mole %	25.95 mole %
Thiopeptin	25.87 mole %	27.31 mole %
